In patent US8722683B2, “Benzodioxole piperazine compounds” (Hoffmann LA-Roche Inc., priority 2011, dated 2014):
Where two headings read alike, the source gives them in different places.

What was measured:
5-HT2A receptor = 5-HT2A receptor (Homo sapiens (Human), UniProt P28223); assay: Radioligand binding ([3H]-ketanserin) to cloned 5-HT2A receptor expressed in HEK-293 EBNA cells
Procedure: (§1) HEK293 EBNA cells were transiently transfected with expression plasmids encoding for the human D2 or D3 or for the human 5-HT2A receptor, respectively. The cells were harvested 48 h post-transfection, washed three times with cold PBS and stored at −80° C. prior to use. The pellet was suspended in cold 50 mM Tris-HCl buffer containing 10 mM EDTA (pH 7.4) and was homogenized with a Polytron (Kinematica AG, Basel, Switzerland) for 20-30 sec at 12.000 rpm. After centrifugation at 48.000×g for 30 min at 4° C., the pellet was resuspended in cold 10 mM Tris-HCl buffer containing 0.1 mM EDTA (pH 7.4), homogenized, and centrifuged as above. This pellet was further resuspended in a smaller volume of ice cold 10 mM Tris-HCl buffer containing 0.1 mM EDTA (pH 7.4) and homogenized with a Polytron for 20-30 sec at 12.000 rpm. The protein content of this homogenate was determined with the Bio-Rad (Bradford) Protein Assay (Biorad Laboratories GmbH, München, Germany) according to the instructions of the manufacturer using gamma globulin as the standard. This homogenate was stored at −80° C. in aliquots and thawed immediately prior to use.
(§2) Radioligand Binding Assay
(§3) Aliquots of membrane preparations were thawed at RT, resupended in assay buffer (D2, D3: 50 mM Tris-HCl, 120 mM NaCl, 5 mM MgCl2, 1 mM EDTA, 5 mM KCl, 1.5 mM CaCl2, pH=7.4; 5-HT2A: 50 mM Tris-HCl, 10 mM MgCl2, 1 mM EGTA, pH=7.4), homogenized with a Polytron for 20-30 sec at 12.000 rpm and adjusted to a final concentration of approximately 7.5 μg protein/well (D2, D3) and 15 μg protein/well (5-HT2A), respectively.
(§4) The binding affinity (Ki) of the compounds was determined using radioligand binding. […] The nonspecific binding was determined with equally composed reaction mixtures in the presence of 10 μM unlabelled spiperone. Per well 45 μl of Microscint 40 (Perkin Elmer, Schwerzenbach, Switzerland) was added, plates for sealed, shaken for 20 min and counted for 3 min on a Topcount Microplate Scintillation Counter (Canberra Packard SA, Zürich, Switzerland) with quenching correction.
(§5) The CPM value for each duplicate of a concentration of competing compound was averaged (y1), then the % specific binding was calculated according to the equation (((y1−non-specific)/(total binding−non-specific))×100). Graphs were plotted with the % specific binding using XLfit, a curve fitting program that iteratively plots the data using Levenberg-Marquardt algorithm. The single site competition analysis equation used was y=A+((B−A)/(1+((x/C)D))), where y is the % specific binding, A is the minimum y, B is the maximum y, C is the IC50, x is the log 10 of the concentration of the competing compound and D is the slope of the curve (the Hill Coefficient). […] The affinity constant (Ki) was calculated using the Cheng-Prusoff equation Ki=(IC50/1+([L]/Kd), where [L] is the concentration of radioligand and Kd is the dissociation constant of the radioligand at the receptor as determined by the saturation isotherm.

D2 receptor = D2 receptor (Homo sapiens (Human), UniProt P14416); assay: Radioligand binding ([3H]-spiperone) to cloned D2 receptor expressed in HEK-293 EBNA cells; details: HEK293 EBNA membranes, 0.7 nM [3H]-spiperone
Chain of D2 receptor (P14416 whole entry): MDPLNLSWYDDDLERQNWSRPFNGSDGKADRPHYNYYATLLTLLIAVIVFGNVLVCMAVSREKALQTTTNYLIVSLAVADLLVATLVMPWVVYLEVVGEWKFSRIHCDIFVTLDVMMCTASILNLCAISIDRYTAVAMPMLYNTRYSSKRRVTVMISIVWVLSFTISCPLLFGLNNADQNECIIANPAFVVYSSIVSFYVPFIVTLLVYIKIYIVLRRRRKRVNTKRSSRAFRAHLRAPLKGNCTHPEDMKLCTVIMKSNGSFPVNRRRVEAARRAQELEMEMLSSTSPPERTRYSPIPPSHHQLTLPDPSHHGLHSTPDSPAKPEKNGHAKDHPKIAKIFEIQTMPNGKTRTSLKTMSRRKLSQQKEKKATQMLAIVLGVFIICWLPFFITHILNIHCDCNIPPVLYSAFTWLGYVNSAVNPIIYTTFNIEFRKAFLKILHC
Procedure: as §1, §2, §3, §4, §5

D3 receptor = D3 receptor (Homo sapiens (Human), UniProt P35462); assay: Radioligand binding ([3H]-spiperone) to cloned D3 receptor expressed in HEK-293 EBNA cells; details: HEK293 EBNA membranes, 0.5 nM [3H]-spiperone
Chain of D3 receptor (P35462 whole entry): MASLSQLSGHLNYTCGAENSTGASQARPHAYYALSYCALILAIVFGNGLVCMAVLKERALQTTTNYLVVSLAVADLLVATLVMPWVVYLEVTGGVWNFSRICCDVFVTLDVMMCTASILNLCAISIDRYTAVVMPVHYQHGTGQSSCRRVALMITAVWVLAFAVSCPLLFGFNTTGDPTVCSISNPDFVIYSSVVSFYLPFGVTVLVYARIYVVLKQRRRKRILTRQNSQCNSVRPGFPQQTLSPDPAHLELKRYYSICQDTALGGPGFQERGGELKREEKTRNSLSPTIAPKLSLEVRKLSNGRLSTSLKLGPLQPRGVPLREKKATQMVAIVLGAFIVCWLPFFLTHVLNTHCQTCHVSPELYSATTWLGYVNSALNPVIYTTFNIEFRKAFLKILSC
Procedure: as §1, §2, §3
The binding affinity (Ki) of the compounds was determined using radioligand binding. […] At the end of the incubation, the reaction mixtures were filtered on to unifilter 96-well white microplates with bonded GF/C filters (Packard BioScience, Zürich, Switzerland; preincubated for 1 h in 0.1% polyethylenimine (PEI) in assay buffer) with a Filtermate 196 harvester (Packard BioScience) and washed 3 times with cold assay buffer. The nonspecific binding was determined with equally composed reaction mixtures in the presence of 10 μM unlabelled spiperone. Per well 45 μl of Microscint 40 (Perkin Elmer, Schwerzenbach, Switzerland) was added, plates for sealed, shaken for 20 min and counted for 3 min on a Topcount Microplate Scintillation Counter (Canberra Packard SA, Zürich, Switzerland) with quenching correction.
as §5

[1] = human 5-HT2A receptor, HEK293 EBNA membranes, 1.1 nM [3H]-ketanserin

Chain of 5-HT2A receptor (P28223 whole entry): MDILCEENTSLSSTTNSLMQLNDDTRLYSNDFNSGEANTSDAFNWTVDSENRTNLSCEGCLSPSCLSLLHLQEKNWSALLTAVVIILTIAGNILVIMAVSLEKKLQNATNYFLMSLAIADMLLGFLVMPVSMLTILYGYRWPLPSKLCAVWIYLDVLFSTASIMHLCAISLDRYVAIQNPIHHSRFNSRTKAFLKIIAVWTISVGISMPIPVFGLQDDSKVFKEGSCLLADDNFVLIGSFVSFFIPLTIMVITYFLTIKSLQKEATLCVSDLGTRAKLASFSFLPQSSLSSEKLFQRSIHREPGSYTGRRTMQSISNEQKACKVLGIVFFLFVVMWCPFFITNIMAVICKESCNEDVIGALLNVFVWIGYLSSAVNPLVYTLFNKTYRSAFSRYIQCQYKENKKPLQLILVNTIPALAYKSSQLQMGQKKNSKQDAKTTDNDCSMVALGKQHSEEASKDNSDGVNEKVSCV

Row | Compound | Ki (5-HT2A receptor; [1]) [µM] | Ki (D2 receptor) [µM] | Ki (D3 receptor) [µM] | Ki (5-HT2A receptor) [µM]
1 | O=C(C[C@H]1COCCO1)N[C@H]1CC[C@H](CCN2CCN(c3cccc4c3OCO4)CC2)CC1 (single isomer, unassigned) [Example 4, Trans-N-{4-[2-(4-Benzo[1,3]dioxol-4-yl-piperazin-1-yl)-ethyl]-cyclohexyl}-2-(S) or (R)[1,4]dioxan-2-yl-acetamide] | 0.00778 | – | – | –
2 | O=C(C[C@@H]1COCCO1)N[C@H]1CC[C@H](CCN2CCN(c3cccc4c3OCO4)CC2)CC1 (single isomer, unassigned) [Example 5, Trans-N-{4-[2-(4-Benzo[1,3]dioxol-4-yl-piperazin-1-yl)-ethyl]-cyclohexyl}-2-(R) or (S)-[1,4]dioxan-2-yl-acetamide] | 0.0123 | – | – | –
3 | O=C(C[C@@H]1CCCOC1)N[C@H]1CC[C@H](CCN2CCN(c3cccc4c3OCO4)CC2)CC1 (single isomer, unassigned) [Example 32, Trans-N-{4-[2-(4-Benzo[1,3]dioxol-4-yl-piperazin-1-yl)-ethyl]-cyclohexyl}-2-(S) or (R)-tetrahydro-pyran-3-yl-acetamide] | 0.0262 | 0.137 | – | –
4 | O=C(C[C@H]1CCCOC1)N[C@H]1CC[C@H](CCN2CCN(c3cccc4c3OCO4)CC2)CC1 (single isomer, unassigned) [Example 33, Trans-N-{4-[2-(4-Benzo[1,3]dioxol-4-yl-piperazin-1-yl)-ethyl]-cyclohexyl}-2-(R) or (S)-tetrahydro-pyran-3-yl-acetamide] | 0.0244 | 0.184 | – | –
5 | O=C(CC1COCCO1)N[C@H]1CC[C@H](CCN2CCN(c3cccc4c3OCO4)CC2)CC1 (stereo partly drawn) [Example 3, Trans-N-{4-[2-(4-Benzo[1,3]dioxol-4-yl-piperazin-1-yl)-ethyl]-cyclohexyl}-2-[1,4]dioxan-2-yl-acetamide] | – | 0.198 | – | 0.0118
6 | O=C(N[C@H]1CC[C@H](CCN2CCN(c3cccc4c3OCO4)CC2)CC1)C1CC1(F)F (stereo partly drawn) [Example 20, Trans-2,2-Difluoro-cyclopropanecarboxylic acid {4-[2-(4-benzo[1,3]dioxol-4-yl-piperazin-1-yl)-ethyl]-cyclohexyl}-amide] | – | 0.144 | 0.00255 | 0.0268
7 | COC(C)CC(=O)N[C@H]1CC[C@H](CCN2CCN(c3cccc4c3OCO4)CC2)CC1 (stereo partly drawn) [Example 21, Trans-N-{4-[2-(4-Benzo[1,3]dioxol-4-yl-piperazin-1-yl)-ethyl]-cyclohexyl}-3-methoxy-butyramide] | – | 0.181 | 0.00276 | 0.0243
8 | CCC(O)C(=O)N[C@H]1CC[C@H](CCN2CCN(c3cccc4c3OCO4)CC2)CC1 (stereo partly drawn) [Example 38, Trans-N-{4-[2-(4-Benzo[1,3]dioxol-4-yl-piperazin-1-yl)-ethyl]-cyclohexyl}-2-hydroxy-butyramide] | – | 0.122 | 0.0125 | 0.0258
9 | CO[C@H](C(=O)N[C@H]1CC[C@H](CCN2CCN(c3cccc4c3OCO4)CC2)CC1)C(C)C [Example 65, (S)-trans-N-{4-[2-(4-Benzo[1,3]dioxol-4-yl-piperazin-1-yl)-ethyl]-cyclohexyl}-2-methoxy-3-methyl-butyramide] | – | 0.112 | 0.0199 | –
10 | O=S(=O)(CC(F)(F)F)N[C@H]1CC[C@H](CCN2CCN(c3cccc4c3OCO4)CC2)CC1 [Example 66, 2,2,2-Trifluoro-ethanesulfonic acid-trans-N-{4-[2-(4-benzo[1,3]dioxol-4-yl-piperazin-1-yl)-ethyl]-cyclohexyl}-amide] | – | 0.0738 | 0.00188 | –
11 | O=S(=O)(N[C@H]1CC[C@H](CCN2CCN(c3cccc4c3OCO4)CC2)CC1)c1ccc(F)cc1 [Example 68, N-trans-{4-[2-(4-Benzo[1,3]dioxol-4-yl-piperazin-1-yl)-ethyl]-cyclohexyl}-4-fluoro-benzenesulfonamide] | – | 0.0462 | 0.0022 | –
12 | O=C(N[C@H]1CC[C@H](CCN2CCN(c3cccc4c3OCO4)CC2)CC1)C(F)(F)F [Example 70, N-trans-{4-[2-(4-Benzo[1,3]dioxol-4-yl-piperazin-1-yl)-ethyl]-cyclohexyl}-2,2,2-trifluoro-acetamide] | – | 0.113 | 0.00491 | –

Continued, in another order:

Row | Ki (5-HT2A receptor; [1]) [µM] | Ki (D2 receptor) [µM] | Ki (D3 receptor) [µM] | Compound | Ki (5-HT2A receptor) [µM]
13 | – | 0.241 | 0.00201 | O=C(N[C@H]1CC[C@H](CCN2CCN(c3cccc4c3OCO4)CC2)CC1)N1CCc2ccccc21 [Example 71, 2,3-Dihydro-indole-1-carboxylic acid-trans-N-{4-[2-(4-benzo[1,3]dioxol-4-yl-piperazin-1-yl)-ethyl]-cyclohexyl}-amide] | –
14 | – | 0.0304 | 0.0112 | CN(C)C(=O)N[C@H]1CC[C@H](CCN2CCN(c3cccc4c3OCO4)CC2)CC1 [Example 72, N-trans-3-{4-[2-(4-Benzo[1,3]dioxol-4-yl-piperazin-1-yl)-ethyl]-cyclohexyl}-1,1-dimethyl-urea] | –
15 | – | 0.117 | 0.00244 | O=C(C[C@H]1C[C@H](CO)C1)N[C@H]1CC[C@H](CCN2CCN(c3cccc4c3OCO4)CC2)CC1 [Example 74, N-trans-{4-[2-(4-Benzo[1,3]dioxol-4-yl-piperazin-1-yl)-ethyl]-cyclohexyl}-2-(3-hydroxymethyl-cyclobutyl)-acetamide] | –
16 | – | 0.158 | 0.00104 | O=C(Nc1ccc(Cl)cc1)N[C@H]1CC[C@H](CCN2CCN(c3cccc4c3OCO4)CC2)CC1 [Example 75, N-trans-1-{4-[2-(4-Benzo[1,3]dioxol-4-yl-piperazin-1-yl)-ethyl]-cyclohexyl}-3-(4-chloro-phenyl)-urea] | –
17 | – | 0.063 | 0.00129 | O=S(=O)(N[C@H]1CC[C@H](CCN2CCN(c3cccc4c3OCO4)CC2)CC1)N1CCOCC1 [Example 77, Morpholine-4-sulfonic acid-trans-N-{4-[2-(4-benzo[1,3]dioxol-4-yl-piperazin-1-yl)-ethyl]-cyclohexyl}-amide] | –
18 | 0.0134 | 0.198 | – | [2H]C1([2H])Oc2cccc(N3CCN(CC[C@H]4CC[C@H](NC(=O)C[C@H]5COCCO5)CC4)CC3)c2O1 [Example 78, N-trans-{4-[2-(4-Benzo(2,2-D2)-[1,3]dioxol-4-yl-piperazin-1-yl)-ethyl]-cyclohexyl}-2-(S)-[1,4]dioxan-2-yl-acetamide] | –
19 | – | 0.146 | 0.00498 | [2H]C1([2H])Oc2cccc(N3CCN(CC[C@H]4CC[C@H](NC(=O)COC)CC4)CC3)c2O1 [Example 79, N-trans-{4-[2-(4-Benzo(2,2-D2) [1,3]dioxol-4-yl-piperazin-1-yl)-ethyl]-cyclohexyl}-2-methoxy-acetamide] | –
20 | – | 0.105 | 0.00223 | [2H]C1([2H])Oc2cccc(N3CCN(CC[C@H]4CC[C@H](NC(=O)C(C)C)CC4)CC3)c2O1 [Example 80, N-trans-{4-[2-(4-Benzo(2,2-D2) [1,3]dioxol-4-yl-piperazin-1-yl)-ethyl]-cyclohexyl}-isobutyramide] | –
21 | – | 0.0972 | 0.00628 | [2H]C1([2H])Oc2cccc(N3CCN(CC[C@H]4CC[C@H](NC(=O)C(C)(C)O)CC4)CC3)c2O1 [Example 81, N-trans-{4-[2-(4-Benzo(2,2-D2)-[1,3]dioxol-4-yl-piperazin-1-yl)-ethyl]-cyclohexyl}-2-hydroxy-2-methyl-propionamide] | –
22 | – | 0.148 | 0.00573 | [2H]C1([2H])Oc2cccc(N3CCN(CC[C@H]4CC[C@H](NC(=O)[C@@H](C)OC)CC4)CC3)c2O1 [Example 82, (R)—N-trans{4-[2-(4-Benzo(2,2-D2)-[1,3]dioxol-4-yl-piperazin-1-yl)-ethyl]-cyclohexyl}-2-methoxypropanamide] | –
